Assay results from patent US20060166900A1, “Salt of morphine-6-glucuronide” (CeNeS Limited, priority 2002, published 2006).

Legend:
Type in all cases: physicochemical
[1] = Stability of M6G salts at room temperature over 6 years, HPLC
[2] = Visual appearance on storage (Example 3)
Procedure, shortened: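 Aliquots (900 mg) kept at 2-8 °C beforehand were stored in argon-flushed brown opaque HDPE bottles at 25 °C/60% RH, 40 °C/75% RH and 60 °C. Visual appearance was assessed at set time points.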

[3] = Water content by Karl Fisher analysis on storage (Example 3)
Procedure, shortened: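 900 mg aliquots were held in argon-flushed brown opaque HDPE bottles at 25 °C/60% RH, 40 °C/75% RH and 60 °C. At each time point, water content (% w/w) was determined in duplicate on about 100 mg of equilibrated material by Karl Fischer titration.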

[4] = Colour of solution by visible spectrophotometry on storage (Example 3); conditions: 5% w/v solution in water
Procedure, shortened: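 5% w/v aqueous solution, absorbance at 420 nm in a 1 cm silica cell. Samples were stored in argon-flushed brown opaque HDPE bottles at 25° C./60% RH, 40° C./75% RH and 60° C.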

[5] = Stability indicating HPLC assay and related substances on storage (Example 3)
[6] = Storage stability of M6G base (general statement)

SMILES: CN1CC[C@]23c4c5ccc(O)c4O[C@H]2[C@@H](O[C@@H]2O[C@H](C(=O)O)[C@@H](O)[C@H](O)[C@H]2O)C=C[C@H]3[C@H]1C5 [Morphine-6-glucuronide base, morphine-6-β-D-glucuronide]
- HN-33177 ([1]; 0 years): 0.7%
- Unknown related substances (sum area %) ([1]; 0 years): <0.1 area %
- Assay M6G corr. ([1]; 0 years, content calculated as M6G derivative): 98.2%
- Assay M6G corr. ([1]; 5 years at ambient temperature): 81.2%
- HN-33177 ([1]; 5 years at ambient temperature): 0.8%
- Morphine ([1]; 5 years at ambient temperature): 0.3%
- Unknown related substances (sum area %) ([1]; 5 years at ambient temperature): 11.8 area %
- Appearance ([2]; 1 month, 25° C./60% RH): White crystalline powder
- Appearance ([2]; 1 month, 40° C./75% RH): Pale yellow crystalline powder
- Appearance ([2]; 1 month, 60° C.): Yellow crystalline powder
- Appearance ([2]; 3 months, 25° C./60% RH): White crystalline powder
- Appearance ([2]; 3 months, 25° C./60% RH, listed as base): white crystalline solids
- Appearance ([2]; 3 months, 40° C./75% RH): Yellow crystalline powder
- Appearance ([2]; Initial): White crystalline powder
- Moisture ([3]; 1 month, 25° C./60% RH): 9.00 % w/w
- Moisture ([3]; 1 month, 40° C./75% RH): 9.68 % w/w
- Moisture ([3]; 1 month, 60° C.): 8.21 % w/w
- Moisture ([3]; 3 months, 25° C./60% RH): 9.53 % w/w
- Moisture ([3]; 3 months, 40° C./75% RH): 9.85 % w/w
- Moisture ([3]; Initial): 9.80 % w/w
- moisture content across storage conditions ([3]; regardless of storage condition): reasonably consistent
- Colour ([4]; 1 month, 25° C./60% RH): 0.040 Abs@420 nm
- Colour ([4]; 1 month, 40° C./75% RH): 0.182 Abs@420 nm
- Colour ([4]; 1 month, 60° C.): 0.541 Abs@420 nm
- Colour ([4]; 3 months, 25° C./60% RH): 0.132 Abs@420 nm
- Colour ([4]; 3 months, 40° C./75% RH): 0.680 Abs@420 nm
- Colour ([4]; Initial): 0.017 Abs@420 nm
- Known Related Substances HN33177 ([5]; 1 month, 25° C./60% RH): 0.88%
- Known Related Substances HN75083 ([5]; 1 month, 25° C./60% RH): 0.05%
- M6G Assay, Anhydrous basis ([5]; 1 month, 25° C./60% RH): 99.61 % w/w
- M6G Assay, As is basis ([5]; 1 month, 25° C./60% RH): 90.77 % w/w
- M6G Assay, Corrected for the salt form ([5]; 1 month, 25° C./60% RH): 99.61 % w/w
- Total Known ([5]; 1 month, 25° C./60% RH): 0.93%
- Total Related Substances ([5]; 1 month, 25° C./60% RH): 1.00%
- Total Unknown ([5]; 1 month, 25° C./60% RH): 0.07%
- Known Related Substances HN33177 ([5]; 1 month, 40° C./75% RH): 0.85%
- Known Related Substances HN67003 ([5]; 1 month, 40° C./75% RH): 0.05%
- Known Related Substances HN75083 ([5]; 1 month, 40° C./75% RH): 0.03%
- M6G Assay, Anhydrous basis ([5]; 1 month, 40° C./75% RH): 99.45 % w/w
- M6G Assay, As is basis ([5]; 1 month, 40° C./75% RH): 89.94 % w/w
- M6G Assay, Corrected for the salt form ([5]; 1 month, 40° C./75% RH): 99.45 % w/w
- Total Known ([5]; 1 month, 40° C./75% RH): 0.93%
- Total Related Substances ([5]; 1 month, 40° C./75% RH): 1.27%
- Total Unknown ([5]; 1 month, 40° C./75% RH): 0.34%
- Known Related Substances HN33177 ([5]; 1 month, 60° C.): 0.83%
- Known Related Substances HN67003 ([5]; 1 month, 60° C.): 0.19%
- Known Related Substances HN75083 ([5]; 1 month, 60° C.): 0.02%
- M6G Assay, Anhydrous basis ([5]; 1 month, 60° C.): 96.18 % w/w
- M6G Assay, As is basis ([5]; 1 month, 60° C.): 89.31 % w/w
- M6G Assay, Corrected for the salt form ([5]; 1 month, 60° C.): 96.18 % w/w
- Total Known ([5]; 1 month, 60° C.): 1.04%
- Total Related Substances ([5]; 1 month, 60° C.): 2.31%
- Total Unknown ([5]; 1 month, 60° C.): 1.27%
- stability based on % w/w assay ([5]; 3 month assay data): most stable
- Known Related Substances HN33177 ([5]; 3 months, 25° C./60% RH): 0.86%
- Known Related Substances HN67003 ([5]; 3 months, 25° C./60% RH): 0.04%
- M6G Assay, Anhydrous basis ([5]; 3 months, 25° C./60% RH): 100.27 % w/w
- M6G Assay, As is basis ([5]; 3 months, 25° C./60% RH): 91.84 % w/w
- M6G Assay, Corrected for the salt form ([5]; 3 months, 25° C./60% RH): 100.27 % w/w
- Total Known ([5]; 3 months, 25° C./60% RH): 0.90%
- Total Related Substances ([5]; 3 months, 25° C./60% RH): 1.42%
- Total Unknown ([5]; 3 months, 25° C./60% RH): 0.52%
- Known Related Substances HN33177 ([5]; 3 months, 40° C./75% RH): 0.95%
- Known Related Substances HN67003 ([5]; 3 months, 40° C./75% RH): 0.23%
- Known Related Substances HN75076 ([5]; 3 months, 40° C./75% RH): 0.01%
- Known Related Substances Morphine ([5]; 3 months, 40° C./75% RH): 0.07%
- M6G Assay, Anhydrous basis ([5]; 3 months, 40° C./75% RH): 97.15 % w/w
- M6G Assay, As is basis ([5]; 3 months, 40° C./75% RH): 88.67 % w/w
- M6G Assay, Corrected for the salt form ([5]; 3 months, 40° C./75% RH): 97.15 % w/w
- Total Known ([5]; 3 months, 40° C./75% RH): 1.26%
- Total Related Substances ([5]; 3 months, 40° C./75% RH): 4.34%
- Total Unknown ([5]; 3 months, 40° C./75% RH): 3.08%
- increase in the amount of degradation products as measured by HPLC ([5]; 3 months, 40° C./75% RH): approximately 3%
- stability assessment ([5]; 25° C./60% RH, three months): relatively stable
- stability assessment ([5]; 40° C./75% RH over 3 months (base also 60° C. over 1 month)): shows signs of degradation
- Known Related Substances HN33177 ([5]; Initial): 0.87%
- Known Related Substances HN67003 ([5]; Initial): 0.05%
- Known Related Substances HN75083 ([5]; Initial): 0.06%
- M6G Assay, Anhydrous basis ([5]; Initial): 99.79 % w/w
- M6G Assay, As is basis ([5]; Initial): 91.07 % w/w
- M6G Assay, Corrected for the salt form ([5]; Initial): 99.79 % w/w
- Total Known ([5]; Initial): 0.98%
- Total Related Substances ([5]; Initial): 0.98%
- Total Unknown ([5]; Initial): 0.00%
- stability on storage ([6]; stored at room temperature): does degrade
- stability on storage ([6]; stored at −20° C.): stable
